Measurements as given in ChEMBL document CHEMBL5728888, “Metallo-beta-lactamase inhibitors and methods of use thereof” (2021).

The molecules below were run against Metallo-beta-lactamase type 2 (Bacteria, UniProt C7C422) (assay: Enzyme Activity: Determination of IC50 : The Class B enzyme activities were measured in the presence of the test inhibitor in a fluorescence assay against a commercially available substrate consisting of a cephalosporin core linking 7-hydroxycoumarin to fluorescein (CCF2-FA). The enzyme (NDM-1, IMP-1 or VIM-1) and the substrate were diluted in 100 mM KH2PO4 buffer (pH 7) containing 0.005% Tween-20 and 10 μM ZnSO4. In the assay, the final concentration of enzyme was 1 pM, 2 pM and 30 pM for NDM-1, IMP-1 and VIM-1, respectively, and the final concentration of CCF2-FA was 1.25 μM. The test inhibitor was dissolved in dimethylsulfoxide and diluted 1:50 in the assay, resulting in a final concentration range of 20 μM to 0.00063 μM. In a 384-well microplate, the test inhibitor was incubated with the metallo-β-lactamase enzyme and the substrate for 2 hours at 25° C. Fluorescence at 460 nm following excitation at 405 nm was measured. The IC50 value was determined from semi-logarithmic plots of enzyme inhibition versus inhibitor concentration, with a curve generated using a 4-parameter fit.).
Chain of Metallo-beta-lactamase type 2 (C7C422 whole entry): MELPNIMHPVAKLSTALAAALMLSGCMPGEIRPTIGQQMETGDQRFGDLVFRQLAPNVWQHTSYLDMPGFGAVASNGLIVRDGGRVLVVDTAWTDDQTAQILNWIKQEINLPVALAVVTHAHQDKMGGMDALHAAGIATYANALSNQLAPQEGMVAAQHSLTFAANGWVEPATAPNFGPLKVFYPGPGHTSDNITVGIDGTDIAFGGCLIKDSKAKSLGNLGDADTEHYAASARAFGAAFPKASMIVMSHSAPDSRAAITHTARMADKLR

SMILES	IC50 [nM]
NCC1CCN(c2ccc(S(=O)(=O)N[C@@H]3CCNC3)c(S(N)(=O)=O)c2-c2nn[nH]n2)CCN1 (stereo partly drawn)	19.2
NC[C@@H](O)CNS(=O)(=O)c1ccc(Nc2ncc[nH]2)c(-c2nn[nH]n2)c1S(N)(=O)=O	10.8
NC[C@@H](O)CNS(=O)(=O)c1ccc(N2CC[C@H](CN)C2)c(-c2nn[nH]n2)c1S(N)(=O)=O	16.8
